Test results as given in patent US9765074B2, “Inhibitors of the renal outer medullary potassium channel” (Merck Sharp & Dohme Corp., priority 2013, dated 2017).

The compounds below were run against T1, hROMK (hKir1.1) (Homo sapiens, UniProt P48048) (assay: Thallium Flux Assay (ROMK channel functional thallium flux, FLIPR-Tetra)). Conditions: HEK293 cells stably expressing hROMK (hKir1.1); 30 min compound incubation.
T1 construct: expressed in transfected cells
T1 sequence (P48048 1-391): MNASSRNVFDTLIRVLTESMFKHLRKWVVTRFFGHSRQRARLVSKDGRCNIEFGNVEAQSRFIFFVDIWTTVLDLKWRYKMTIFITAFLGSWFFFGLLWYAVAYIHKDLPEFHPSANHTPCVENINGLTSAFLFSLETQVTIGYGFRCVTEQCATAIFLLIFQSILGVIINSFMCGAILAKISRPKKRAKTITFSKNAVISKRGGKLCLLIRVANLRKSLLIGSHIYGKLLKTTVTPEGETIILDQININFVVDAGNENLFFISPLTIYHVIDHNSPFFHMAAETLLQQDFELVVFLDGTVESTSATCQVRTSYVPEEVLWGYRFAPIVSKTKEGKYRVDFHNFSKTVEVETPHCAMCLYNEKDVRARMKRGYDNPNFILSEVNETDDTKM
Format: cell-based
Procedure, shortened: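 Thallium flux read by FluxOR fluorescence ([…]) for ~10 min after adding 3 mM Tl+/0.3 mM K+ final. Stable HEK-hKir1.1 cells were dye-loaded 90 min, exposed to compound 30 min at room temperature in ouabain/probenecid buffer; IC50 relative to a 3 μM control inhibitor.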

Compound	IC50
CC1=C(N2CCC3(CCN(C[C@H](O)c4ccc(-n5cnnn5)cn4)CC3)C2=O)COC1=O [Example 22, 8-{(2S)-2-hydroxy-2-[5-(1H-tetrazol-1-yl)pyridin-2-yl]ethyl}-2-(4-methyl-5-oxo-2,5-dihydrofuran-3-yl)-1-oxo-2-aza-8-azoniaspiro[4.5]decane]	10 nM
CC1=C(N2CCC3(CCN(C[C@@H](O)c4ccc(-n5cnnn5)cn4)CC3)C2=O)COC1=O [Example 23, 8-{(2R)-2-hydroxy-2-[5-(1H-tetrazol-1-yl)pyridin-2-yl]ethyl}-2-(4-methyl-5-oxo-2,5-dihydrofuran-3-yl)-1-oxo-2-aza-8-azoniaspiro[4.5]decane]	20 nM
CC1=C(N2CCC3(CCN(C[C@H](O)c4cnc(-n5cnnn5)cn4)CC3)C2=O)COC1=O [Example 24, 8-{(2S)-2-hydroxy-2-[5-(1H-tetrazol-1-yl)pyrazin-2-yl]ethyl}-2-(4-methyl-5-oxo-2,5-dihydrofuran-3-yl)-1-oxo-2-aza-8-azoniaspiro[4.5]decane]	20 nM
CC1=C(N2CCC3(CCN(C[C@@H](O)c4cnc(-n5cnnn5)cn4)CC3)C2=O)COC1=O [Example 25, 8-{(2R)-2-hydroxy-2-[5-(1H-tetrazol-1-yl)pyrazin-2-yl]ethyl}-2-(4-methyl-5-oxo-2,5-dihydrofuran-3-yl)-1-oxo-2-aza-8-azoniaspiro[4.5]decane]	30 nM
CC1=C(N2CCC3(CCN(C[C@H](O)c4cnc(-n5cnnn5)c(F)c4)CC3)C2=O)COC1=O [Example 26, 8-{(2R)-2-[5-fluoro-6-(1H-tetrazol-1-yl)pyridin-3-yl]-2-hydroxyethyl}-2-(4-methyl-5-oxo-2,5-dihydrofuran-3-yl)-1-oxo-2-aza-8-azoniaspiro[4.5]decane]	40 nM
CC1=C(N2CCC3(CCN(C[C@@H](O)c4cnc(-n5cnnn5)c(F)c4)CC3)C2=O)COC1=O [Example 27, 8-{(2S)-2-[5-fluoro-6-(1H-tetrazol-1-yl)pyridin-3-yl]-2-hydroxyethyl}-2-(4-methyl-5-oxo-2,5-dihydrofuran-3-yl)-1-oxo-2-aza-8-azoniaspiro[4.5]decane]	20 nM
CC1=C(N2CCC3(CCN(C[C@H](O)c4ncc(-n5cnnn5)cc4C)CC3)C2=O)COC1=O [Example 28, 8-{(2S)-2-hydroxy-2-[3-methyl-5-(1H-tetrazol-1-yl)pyridin-2-yl]ethyl}-2-(4-methyl-5-oxo-2,5-dihydrofuran-3-yl)-1-oxo-2-aza-8-azoniaspiro[4.5]decane]	30 nM
CC1=C(N2CCC3(CCN(C[C@@H](O)c4ncc(-n5cnnn5)cc4C)CC3)C2=O)COC1=O [Example 29, 8-{(2R)-2-hydroxy-2-[3-methyl-5-(1H-tetrazol-1-yl)pyridin-2-yl]ethyl}-2-(4-methyl-5-oxo-2,5-dihydrofuran-3-yl)-1-oxo-2-aza-8-azoniaspiro[4.5]decane]	40 nM
CC1=C(N2CCC3(CCN(C[C@H](O)c4ccc(-n5cnnn5)cc4)CC3)C2=O)COC1=O [Example 34, 8-{(2R)-2-hydroxy-2-[4-(1H-tetrazol-1-yl)phenyl]ethyl}-2-(4-methyl-5-oxo-2,5-dihydrofuran-3-yl)-1-oxo-2-aza-8-azoniaspiro[4.5]decane]	10 nM
CC1=C(N2CCC3(CCN(C[C@@H](O)c4ccc(-n5cnnn5)cc4)CC3)C2=O)COC1=O [Example 35, 8-{(2S)-2-hydroxy-2-[4-(1H-tetrazol-1-yl)phenyl]ethyl}-2-(4-methyl-5-oxo-2,5-dihydrofuran-3-yl)-1-oxo-2-aza-8-azoniaspiro[4.5]decane]	10 nM
CC1=C(N2CCC3(CCN(C[C@H](O)c4ncc(-n5cnnn5)cn4)CC3)C2=O)COC1=O [Example 40, 8-{(2S)-2-hydroxy-2-[5-(1H-tetrazol-1-yl)pyrimidin-2-yl]ethyl}-2-(4-methyl-5-oxo-2,5-dihydrofuran-3-yl)-1-oxo-2-aza-8-azoniaspiro[4.5]decane]	200 nM
CC1=C(N2CCC3(CCN(C[C@@H](O)c4ncc(-n5cnnn5)cn4)CC3)C2=O)COC1=O [Example 41, 8-{(2R)-2-hydroxy-2-[5-(1H-tetrazol-1-yl)pyrimidin-2-yl]ethyl}-2-(4-methyl-5-oxo-2,5-dihydrofuran-3-yl)-1-oxo-2-aza-8-azoniaspiro[4.5]decane]	160 nM
Cc1nc(-n2cnnn2)ccc1[C@H](O)CN1C2CCC1CC1(CCN(C3=CC(=O)OC3)C1=O)C2 (stereo partly drawn) [Example 42, (1R,5R)-8-{(2S)-2-hydroxy-2-[2-methyl-6-(1H-tetrazol-1-yl)pyridin-3-yl]ethyl}-2′-oxo-1′-(5-oxo-2,5-dihydrofuran-3-yl)spiro[8-azoniabicyclo[3.2.1]octane-3,3′-pyrrolidine]]	20 nM
Cc1nc(-n2cnnn2)ccc1[C@@H](O)CN1C2CCC1CC1(CCN(C3=CC(=O)OC3)C1=O)C2 (stereo partly drawn) [Example 43, (1R,5R)-8-{(2R)-2-hydroxy-2-[2-methyl-6-(1H-tetrazol-1-yl)pyridin-3-yl]ethyl}-2′-oxo-1′-(5-oxo-2,5-dihydrofuran-3-yl)spiro[8-azoniabicyclo[3.2.1]octane-3,3′-pyrrolidine]]	10 nM
O=C1C=C(N2CCC3(CC4CCC(C3)N4C[C@H](O)c3ccc(-n4cnnn4)nn3)C2=O)CO1 (stereo partly drawn) [Example 44, (1R,5R)-8-{(2S)-2-hydroxy-2-[6-(1H-tetrazol-1-yl)pyridazin-3-yl]ethyl}-2′-oxo-1′-(5-oxo-2,5-dihydrofuran-3-yl)spiro[8-azoniabicyclo[3.2.1]octane-3,3′-pyrrolidine]]	10 nM
CC1=C(N2CCC3(CC4CCC(C3)N4C[C@H](O)c3cnc(-n4cnnn4)nc3)C2=O)COC1=O (stereo partly drawn) [Example 45, (1R,5R)-8-{(2R)-2-hydroxy-2-[2-(1H-tetrazol-1-yl)pyrimidin-5-yl]ethyl}-1′-(4-methyl-5-oxo-2,5-dihydrofuran-3-yl)-2′-oxospiro[8-azoniabicyclo[3.2.1]octane-3,3′-pyrrolidine]]	30 nM

Second part, the compound after the results:

IC50	Compound
30 nM	CC1=C(N2CCC3(CCN(C[C@H](O)c4ccc(-n5cnnn5)nc4C)CC3)C2=O)COC1=O [Example 20, 8-{(2R)-2-hydroxy-2-[2-methyl-6-(1H-tetrazol-1-yl)pyridin-3-yl]ethyl}-2-(4-methyl-5-oxo-2,5-dihydrofuran-3-yl)-1-oxo-2-aza-8-azoniaspiro[4.5]decane]
40 nM	CC1=C(N2CCC3(CCN(C[C@@H](O)c4ccc(-n5cnnn5)nc4C)CC3)C2=O)COC1=O [Example 21, 8-{(2S)-2-hydroxy-2-[2-methyl-6-(1H-tetrazol-1-yl)pyridin-3-yl]ethyl}-2-(4-methyl-5-oxo-2,5-dihydrofuran-3-yl)-1-oxo-2-aza-8-azoniaspiro[4.5]decane]
20 nM	CC1=C(N2CCC3(CCN(C[C@H](O)c4ccc(-n5cnnn5)c(C)n4)CC3)C2=O)COC1=O [Example 30, 8-{(2S)-2-hydroxy-2-[6-methyl-5-(1H-tetrazol-1-yl)pyridin-2-yl]ethyl}-2-(4-methyl-5-oxo-2,5-dihydrofuran-3-yl)-1-oxo-2-aza-8-azoniaspiro[4.5]decane]
30 nM	CC1=C(N2CCC3(CCN(C[C@@H](O)c4ccc(-n5cnnn5)c(C)n4)CC3)C2=O)COC1=O [Example 31, 8-{(2R)-2-hydroxy-2-[6-methyl-5-(1H-tetrazol-1-yl)pyridin-2-yl]ethyl}-2-(4-methyl-5-oxo-2,5-dihydrofuran-3-yl)-1-oxo-2-aza-8-azoniaspiro[4.5]decane]
20 nM	CC1=C(N2CCC3(CCN(C[C@H](O)c4ccc(-n5cnnn5)nn4)CC3)C2=O)COC1=O [Example 32, 8-{(2S)-2-hydroxy-2-[6-(1H-tetrazol-1-yl)pyridazin-3-yl]ethyl}-2-(4-methyl-5-oxo-2,5-dihydrofuran-3-yl)-1-oxo-2-aza-8-azoniaspiro[4.5]decane]
20 nM	CC1=C(N2CCC3(CCN(C[C@@H](O)c4ccc(-n5cnnn5)nn4)CC3)C2=O)COC1=O [Example 33, 8-{(2R)-2-hydroxy-2-[6-(1H-tetrazol-1-yl)pyridazin-3-yl]ethyl}-2-(4-methyl-5-oxo-2,5-dihydrofuran-3-yl)-1-oxo-2-aza-8-azoniaspiro[4.5]decane]
10 nM	CC1=C(N2CCC3(CCN(C[C@H](O)c4ccc(-n5cnnn5)cc4F)CC3)C2=O)COC1=O [Example 36, 8-{(2R)-2-[2-fluoro-4-(1H-tetrazol-1-yl)phenyl]-2-hydroxyethyl}-2-(4-methyl-5-oxo-2,5-dihydrofuran-3-yl)-1-oxo-2-aza-8-azoniaspiro[4.5]decane]
10 nM	CC1=C(N2CCC3(CCN(C[C@@H](O)c4ccc(-n5cnnn5)cc4F)CC3)C2=O)COC1=O [Example 37, 8-{(2S)-2-[2-fluoro-4-(1H-tetrazol-1-yl)phenyl]-2-hydroxyethyl}-2-(4-methyl-5-oxo-2,5-dihydrofuran-3-yl)-1-oxo-2-aza-8-azoniaspiro[4.5]decane]
10 nM	CC1=C(N2CCC3(CCN(C[C@H](O)c4ccc(-n5cnnn5)cc4C)CC3)C2=O)COC1=O [Example 38, 8-{(2R)-2-hydroxy-2-[2-methyl-4-(1H-tetrazol-1-yl)phenyl]ethyl}-2-(4-methyl-5-oxo-2,5-dihydrofuran-3-yl)-1-oxo-2-aza-8-azoniaspiro[4.5]decane]
10 nM	CC1=C(N2CCC3(CCN(C[C@@H](O)c4ccc(-n5cnnn5)cc4C)CC3)C2=O)COC1=O [Example 39, 8-{(2S)-2-hydroxy-2-[2-methyl-4-(1H-tetrazol-1-yl)phenyl]ethyl}-2-(4-methyl-5-oxo-2,5-dihydrofuran-3-yl)-1-oxo-2-aza-8-azoniaspiro[4.5]decane]
